Test results reported in the supplement of paper PMC8671470.
Structures can show the parent of a compound that is named as a salt.

Each compound was assayed on MV4-11 (assay: cell viability (% survival relative to DMSO control, bortezomib = 0%); higher = less cytotoxic). Conditions: 1000 nM; 72 h.
Outline: (§1)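 Fifteen myeloid leukaemia cell lines were exposed to compounds at 1, 10, 100, 1000 or 10000 nM in 384-well plates for 72 h at 37 °C and 5% CO2. Viability was read by CellTiter-Glo luminescence and normalised, with vehicle as 100% and a 10 µM positive control as 0%. Values are percent survival averaged over duplicates.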

Row | SMILES | cell viability [%]
1 | COC(=O)c1cc2c(C(F)(F)F)cc(-c3ccccc3)cc2n1O [NHI-2] | 85.3
2 | CCCCCCCC/C=C\CCCCCCCC(=O)Nc1ccccc1 [Octadec-9-Enoic Acid Phenylamide] | 110
3 | CC[C@H](C)[C@H](N)C(=O)N1CCSC1 [P32/98] | 96.9
4 | OC[C@H]1O[C@@H](n2cnc3c2N=CNC[C@H]3O)C[C@@H]1O [Pentostatin] | 105
5 | CC(C)CC(=O)N[C@H](C(=O)N[C@H](C(=O)N[C@@H](CC(C)C)[C@@H](O)CC(=O)N[C@@H](C)C(=O)N[C@@H](CC(C)C)[C@@H](O)CC(=O)O)C(C)C)C(C)C [Pepstatin A] | 92.3
6 | Cc1cccc(Nc2cc(Cl)nc(SCC(=O)O)n2)c1C [Pirinixic acid] | 99.3
7 | C[C@]12C=CC(=O)C=C1CC[C@@H]1[C@@H]2[C@@H](O)C[C@@]2(C)[C@H]1CC[C@]2(O)C(=O)CO [Prednisolone] | 142
8 | N[C@@H](CC(=O)N1CCn2c(nnc2C(F)(F)F)C1)Cc1cc(F)c(F)cc1F [Sitagliptin] | 92.2
9 | CCCc1nc(C)c2c(=O)nc(-c3cc(S(=O)(=O)N4CCN(CC)CC4)ccc3OCC)[nH]n12 [Vardenafil] | 97.7
10 | CCc1c(C(=O)C(N)=O)c2c(OCC(=O)O)cccc2n1Cc1ccccc1 [Varespladib] | 88.3
11 | N#Cc1ccc(N(Cc2ccc(Br)cc2)n2cnnc2)cc1 [YM511] | 106
12 | N#C/C(=C\c1ccc(O)cc1)C(=O)O [alpha-cyano-4-hydroxycinnamic acid] | 100

Same assay, conditions: 10000 nM; 72 h

Row | SMILES | cell viability [%]
13 | CN(CCCOc1ccc(Cc2ccccc2)cc1)CCC(=O)O | 87.8
14 | COc1ccc2c(NC(=O)Nc3cccc(C(F)(F)F)n3)ccnc2c1 | 77.2
15 | Cc1nc(-c2ccccc2)sc1C(=O)Nc1ccc(S(N)(=O)=O)cc1 | 93.8
16 | C=CC(=O)c1ccc(O)cc1 [4-Acryloylphenol] | -1.55
17 | O=c1cc(-c2ccccc2)oc2c1ccc1ccccc12 [Alpha-Naphtoflavone] | 97.1
18 | Cc1c(Cl)cccc1S(=O)(=O)Nc1nc(CC(=O)N2CCN(C)CC2)cs1 [BVT-2733] | 112
19 | CCc1oc2ccccc2c1C(=O)c1cc(Br)c(O)c(Br)c1 [Benzbromarone] | 118
20 | CCOC(=O)c1sc(NC(=O)c2ccco2)c(SC#N)c1C [CBR-5884] | 51.1
21 | CCCCCOC(=O)Nc1nc(=O)n([C@@H]2O[C@H](C)[C@@H](O)[C@H]2O)cc1F [Capecitabine] | 89.7
22 | Cc1ccc(-c2cc(C(F)(F)F)nn2-c2ccc(S(N)(=O)=O)cc2)cc1 [Celecoxib] | 79.4
23 | O=c1c(-c2ccc(O)cc2)coc2cc(O[C@@H]3O[C@H](CO)[C@@H](O)[C@H](O)[C@H]3O)ccc12 [Daidzin] | 98.8
24 | C[C@H]1c2cccc(O)c2C(=O)C2C(=O)[C@]3(O)C(=O)C(C(N)=O)C(=O)[C@@H](N(C)C)[C@@H]3[C@@H](O)[C@@H]21 (stereo partly specified) [Doxycycline] | 50.9
25 | OC[C@H]1NC[C@H](O)[C@@H](O)[C@@H]1O [Duvoglustat] | 113
26 | O=C(NCCN1CCC(n2c(O)nc3ccccc32)CC1)c1cc2cc(F)ccc2[nH]1 [FIPI] | 53.2
27 | CCN(CCO)CCCC(C)Nc1ccnc2cc(Cl)ccc12 (stereo unspecified) [Hydroxychloroquine sulfate] | 106
28 | O=C([O-])CC(O)(C(=O)[O-])C(O)C(=O)[O-].[K+].[K+].[K+] (stereo unspecified) [Hydroxycitrate] | 90.2

Row | SMILES | cell viability [%]
29 | CCCCCN(C)CCC(O)(P(=O)(O)O)P(=O)(O)O [Ibandronate] | 116
30 | Cc1cc(C(=O)NNCc2ccccc2)no1 [Isocarboxazid] | 80.4
31 | CCn1c(=Cc2cccc[n+]2CC)sc(=C2Sc3ccccc3N2C)c1=O [MKT 077] | 0.22
32 | COC(=O)c1cc2c(C(F)(F)F)cc(-c3ccccc3)cc2n1O [NHI-2] | 94.3
33 | CCCCCCCC/C=C\CCCCCCCC(=O)Nc1ccccc1 [Octadec-9-Enoic Acid Phenylamide] | 82.6
34 | CC[C@H](C)[C@H](N)C(=O)N1CCSC1 [P32/98] | 108
35 | OC[C@H]1O[C@@H](n2cnc3c2N=CNC[C@H]3O)C[C@@H]1O [Pentostatin] | 103
36 | CC(C)CC(=O)N[C@H](C(=O)N[C@H](C(=O)N[C@@H](CC(C)C)[C@@H](O)CC(=O)N[C@@H](C)C(=O)N[C@@H](CC(C)C)[C@@H](O)CC(=O)O)C(C)C)C(C)C [Pepstatin A] | 81.8
37 | Cc1cccc(Nc2cc(Cl)nc(SCC(=O)O)n2)c1C [Pirinixic acid] | 99.8
38 | C[C@]12C=CC(=O)C=C1CC[C@@H]1[C@@H]2[C@@H](O)C[C@@]2(C)[C@H]1CC[C@]2(O)C(=O)CO [Prednisolone] | 107
39 | N[C@@H](CC(=O)N1CCn2c(nnc2C(F)(F)F)C1)Cc1cc(F)c(F)cc1F [Sitagliptin] | 101
40 | CCCc1nc(C)c2c(=O)nc(-c3cc(S(=O)(=O)N4CCN(CC)CC4)ccc3OCC)[nH]n12 [Vardenafil] | 93.3
41 | CCc1c(C(=O)C(N)=O)c2c(OCC(=O)O)cccc2n1Cc1ccccc1 [Varespladib] | 98.5
42 | N#Cc1ccc(N(Cc2ccc(Br)cc2)n2cnnc2)cc1 [YM511] | 98.9
43 | N#C/C(=C\c1ccc(O)cc1)C(=O)O [alpha-cyano-4-hydroxycinnamic acid] | 101

The compounds below were run on NOMO-1 in the same assay as above. Conditions: 1 nM; 72 h.
Outline: as §1

Row | SMILES | cell viability [%]
44 | CN(CCCOc1ccc(Cc2ccccc2)cc1)CCC(=O)O | 106
45 | COc1ccc2c(NC(=O)Nc3cccc(C(F)(F)F)n3)ccnc2c1 | 97.4
46 | Cc1nc(-c2ccccc2)sc1C(=O)Nc1ccc(S(N)(=O)=O)cc1 | 113
47 | C=CC(=O)c1ccc(O)cc1 [4-Acryloylphenol] | 88
48 | O=c1cc(-c2ccccc2)oc2c1ccc1ccccc12 [Alpha-Naphtoflavone] | 99.7
49 | Cc1c(Cl)cccc1S(=O)(=O)Nc1nc(CC(=O)N2CCN(C)CC2)cs1 [BVT-2733] | 105
50 | CCc1oc2ccccc2c1C(=O)c1cc(Br)c(O)c(Br)c1 [Benzbromarone] | 95.1
51 | CCOC(=O)c1sc(NC(=O)c2ccco2)c(SC#N)c1C [CBR-5884] | 99.8
52 | CCCCCOC(=O)Nc1nc(=O)n([C@@H]2O[C@H](C)[C@@H](O)[C@H]2O)cc1F [Capecitabine] | 99.5
53 | Cc1ccc(-c2cc(C(F)(F)F)nn2-c2ccc(S(N)(=O)=O)cc2)cc1 [Celecoxib] | 101
54 | O=c1c(-c2ccc(O)cc2)coc2cc(O[C@@H]3O[C@H](CO)[C@@H](O)[C@H](O)[C@H]3O)ccc12 [Daidzin] | 93.4
55 | C[C@H]1c2cccc(O)c2C(=O)C2C(=O)[C@]3(O)C(=O)C(C(N)=O)C(=O)[C@@H](N(C)C)[C@@H]3[C@@H](O)[C@@H]21 (stereo partly specified) [Doxycycline] | 103
56 | OC[C@H]1NC[C@H](O)[C@@H](O)[C@@H]1O [Duvoglustat] | 95.8
57 | O=C(NCCN1CCC(n2c(O)nc3ccccc32)CC1)c1cc2cc(F)ccc2[nH]1 [FIPI] | 96.7
58 | CCN(CCO)CCCC(C)Nc1ccnc2cc(Cl)ccc12 (stereo unspecified) [Hydroxychloroquine sulfate] | 94.4
59 | O=C([O-])CC(O)(C(=O)[O-])C(O)C(=O)[O-].[K+].[K+].[K+] (stereo unspecified) [Hydroxycitrate] | 83.1

Row | SMILES | cell viability [%]
60 | CCCCCN(C)CCC(O)(P(=O)(O)O)P(=O)(O)O [Ibandronate] | 99.6
61 | Cc1cc(C(=O)NNCc2ccccc2)no1 [Isocarboxazid] | 105
62 | CCn1c(=Cc2cccc[n+]2CC)sc(=C2Sc3ccccc3N2C)c1=O [MKT 077] | 98
63 | COC(=O)c1cc2c(C(F)(F)F)cc(-c3ccccc3)cc2n1O [NHI-2] | 101
64 | CCCCCCCC/C=C\CCCCCCCC(=O)Nc1ccccc1 [Octadec-9-Enoic Acid Phenylamide] | 97
65 | CC[C@H](C)[C@H](N)C(=O)N1CCSC1 [P32/98] | 102
66 | OC[C@H]1O[C@@H](n2cnc3c2N=CNC[C@H]3O)C[C@@H]1O [Pentostatin] | 105
67 | CC(C)CC(=O)N[C@H](C(=O)N[C@H](C(=O)N[C@@H](CC(C)C)[C@@H](O)CC(=O)N[C@@H](C)C(=O)N[C@@H](CC(C)C)[C@@H](O)CC(=O)O)C(C)C)C(C)C [Pepstatin A] | 98.3
68 | Cc1cccc(Nc2cc(Cl)nc(SCC(=O)O)n2)c1C [Pirinixic acid] | 106
69 | C[C@]12C=CC(=O)C=C1CC[C@@H]1[C@@H]2[C@@H](O)C[C@@]2(C)[C@H]1CC[C@]2(O)C(=O)CO [Prednisolone] | 93.3
70 | N[C@@H](CC(=O)N1CCn2c(nnc2C(F)(F)F)C1)Cc1cc(F)c(F)cc1F [Sitagliptin] | 99.8
71 | CCCc1nc(C)c2c(=O)nc(-c3cc(S(=O)(=O)N4CCN(CC)CC4)ccc3OCC)[nH]n12 [Vardenafil] | 94.4
72 | CCc1c(C(=O)C(N)=O)c2c(OCC(=O)O)cccc2n1Cc1ccccc1 [Varespladib] | 102
73 | N#Cc1ccc(N(Cc2ccc(Br)cc2)n2cnnc2)cc1 [YM511] | 103
74 | N#C/C(=C\c1ccc(O)cc1)C(=O)O [alpha-cyano-4-hydroxycinnamic acid] | 99.5

Same assay, conditions: 10 nM; 72 h

Row | SMILES | cell viability [%]
75 | CN(CCCOc1ccc(Cc2ccccc2)cc1)CCC(=O)O | 107
76 | COc1ccc2c(NC(=O)Nc3cccc(C(F)(F)F)n3)ccnc2c1 | 98.2
